Type in all cases: in vivo
In one experiment the test system is Eleusine indica (ELEIN). The experiment in a line: Biological Example 3 glasshouse assay, post-emergence, various adjuvant systems. To be noted: 8 g/ha; for percentage control of Eleusine indica: adjuvant 0.5% v/v TEHP + 1.0% v/v AMS + 12.5% v/v IPA; for percentage control of (phytotoxicity on) Eleusine indica (ELEIN): 14 DAA, adjuvant 0.5% v/v Hexamoll DINCH + 1.0% v/v AMS + 12.5% v/v IPA. As to the method: Post-emergence foliar spray application, 200 L/ha, usually one or two replicates for the weeds (depending on application rate), and two replicates for soybean.
Standard warm conditions (tropical), in glasshouse. Specifically, the glasshouse bay conditions are 24° C./18° C. day/night; 16/8 hours light/dark; 65% humidity.
The herbicidal application takes place at the following growth stages for plants which include inter alia one or more of the following plants (usually the herbicidal application takes place on at least the following plants: DIGSA, ELEIN, SETFA, ZEAMX, GLXMA Nikko, and GLXMA TMG133, and often also either BRADC or BRAPP):
Eleusine indica (ELEIN)—growth stage 12 or 13
Each test compound is applied with one of the following adjuvant systems (all percentages are final concentrations in the aqueous spray mixture):
Adjuvant system 2: 0.5% v/v Hexamoll™ DINCH**, 1.0% v/v AMS (ammonium sulphate) and 12.5% v/v IPA (isopropyl alcohol).
Adjuvant system 3: 0.5% v/v tris-(2-ethylhexyl)phosphate (“TEHP”), 1.0% v/v AMS (ammonium sulphate) and 12.5% v/v IPA (isopropyl alcohol).
Seeds of the weed (including volunteer) plants, typically including inter alia Digitaria sanguinalis (DIGSA), Eleusine indica (ELEIN), Setaria faberi (SETFA), Zea mays (ZEAMX, corn), and sometimes also [either Brachiaria decumbens (BRADC) or Brachiaria platyphylla (BRAPP)], are sown in seed trays (troughs) containing clay loam soil (pH 7.0, 2.2% organic matter, “Trough Mix A”); and soybean seed is sown in pots containing the same soil with 3 soybean seedlings per pot. The plants are sprayed with the test herbicide when they reach the growth stages mentioned above.
The test herbicidal solutions are prepared by mixing the appropriate aliquots of the test substance(s) and one of the adjuvant systems indicated above *** in deionised water to give the desired treatment concentration.
The herbicidal application is made as a foliar spray, using a tracksprayer. Following the herbicidal application, the plants are watered twice per day for the duration of the test.
A visual assessment of the % herbicidal damage is made 7 and 14 Days After herbicide Application (DAA) (or, in a minority of cases, 7 and 15 DAA), and the results are recorded as % visual herbicidal damage where 0%=no damage to plants and 100%=plant totally killed.
Compounds A2 and A7 were tested using the 0.5% v/v Hexamoll™ DINCH™+1.0% v/v AMS+12.5% v/v IPA adjuvant system. Compounds A11, A12, A14, A20 and A21 were tested using the 0.5% v/v tris-(2-ethylhexyl)phosphate (“TEHP”)+1.0% v/v AMS+12.5% v/v IPA adjuvant system.
The percentages of herbicidal damage/plant control, at 14 Days After herbicide Application (DAA) (or, in some cases, at 15 DAA), for the Compounds tested and for some of the plants tested, were in the following percentage ranges. For the tested compounds, the phytotoxicity results shown herein are generally the average of 2 or 3 repetitions (for the grassy weeds including corn) or the average of 2 repetitions (for soybean for most of the tested compounds). However, for Compound A2 on soybean there was 1 repetion only.

The next experiment has as its system Setaria faberi (SETFA). The experiment in a line: Test 2 glasshouse assay (IF50 formulation, X-77), post-emergence herbicidal activity. The note with it: 360 h, 15 DAA, visual score, read-out: Post-emergence herbicidal activity (percentage phytotoxicity) SETFA; for pest or weed control at 125 g/ha: application rate 125 g/ha; for pest or weed control at 30 g/ha: application rate 30 g/ha; for pest or weed control at 250 g/ha: application rate 250 g/ha. As for the experimental part: (§1) Seeds of a variety of monocotyledonous and dicotyledonous test plants are sown in standard soil in pots. The plants are cultivated for one day (for pre-emergence) or for about 12 days (for post-emergence) under controlled conditions in a glasshouse (warm climate species at 24/18° C., cool climate species at 20/16° C., both at day/night; 16 hours light; 65% humidity).
(§2) An “instant formulation”, known as the “IF50”, containing 50 g/liter (i.e. 5% w/v) of the “technical” (i.e. unformulated) active ingredient is prepared by dissolving the active ingredient in a mixture of organic solvents and emulsifier, details of which are provided in the Table below. This IF50 is then mixed with a small, variable amount of acetone to aid dissolution, before addition of a 0.2% v/v aqueous solution of the adjuvant X-77 (which is a mixture of alkyl aryl polyoxyethylene glycols and free fatty acids in isopropanol, CAS Registry number 11097-66-8), as the aqueous diluent, to form an aqueous spray solution which contains a predetermined concentration of the active ingredient (which varies depending on the application rate of the active ingredient to the plants) and 0.2% v/v of the adjuvant X-77. This aqueous spray solution is then sprayed onto the plants, after one day's cultivation (for pre-emergence), or after about 12 days' cultivation (range=10-13 days) (for post-emergence).
(§3) The test plants are then grown on, in a glasshouse (greenhouse) under controlled conditions (warm climate species at 24/18° C., cool climate species at 20/16° C., both at day/night; 16 hours light; 65% humidity) and are watered twice daily. 15 days after application of the test herbicide (15DAA) (for post-emergence), and 20 days after application of the test herbicide (20DAA) (for pre-emergence), the test plants are evaluated visually, and an assessed percentage phytotoxicity score is given for each herbicidal application on each plant species (with 100%=total damage to plant; 0%=no damage to plant).
(§4) Warm climate (“warm season”) grassy monocotyledonous weeds: Setaria faberi (SETFA), Panicum miliaceum (PANMI), Sorghum vulgare Pers. (SORVU) (or Sorghum bicolor (L) Moench ssp. Bicolor), Digitaria sanguinalis (DIGSA), Echinochloa crus-galli (ECHCG), and Brachiaria plantaginea (BRAPL).

Experiment [1] deals with Brachiaria plantaginea (BRAPL). Described as above. To be noted: Urochloa plantaginea, 360 h, 15 DAA, visual score, read-out: Post-emergence herbicidal activity (percentage phytotoxicity) BRAPL; for pest or weed control at 125 g/ha: application rate 125 g/ha; for pest or weed control at 30 g/ha: application rate 30 g/ha; for pest or weed control at 250 g/ha: application rate 250 g/ha. As for the experimental part:
as §1, §2, §3, §4

Experiment [2] concerns Panicum miliaceum (PANMI). The description is as above. The note with it: 360 h, 15 DAA, visual score, read-out: Post-emergence herbicidal activity (percentage phytotoxicity) PANMI; for pest or weed control at 125 g/ha: application rate 125 g/ha; for pest or weed control at 30 g/ha: application rate 30 g/ha; for pest or weed control at 250 g/ha: application rate 250 g/ha. As for the experimental part:
as §1, §2, §3, §4

Experiment [3] concerns Digitaria sanguinalis (DIGSA). The experiment is described as above. To be noted: 360 h, 15 DAA, visual score, read-out: Post-emergence herbicidal activity (percentage phytotoxicity) DIGSA; for pest or weed control at 125 g/ha: application rate 125 g/ha; for pest or weed control at 30 g/ha: application rate 30 g/ha; for pest or weed control at 250 g/ha: application rate 250 g/ha. As for the experimental part: as §1, §2, §3, §4

Experiment [4] relates to Sorghum vulgare Pers. (SORVU). The description is as above. To be noted: Sorghum bicolor, 360 h, 15 DAA, visual score, read-out: Post-emergence herbicidal activity (percentage phytotoxicity) SORVU; for pest or weed control at 125 g/ha: application rate 125 g/ha; for pest or weed control at 30 g/ha: application rate 30 g/ha; for pest or weed control at 250 g/ha: application rate 250 g/ha. As for the experimental part:
as §1, §2, §3, §4

Experiment [5] deals with Echinochloa crus-galli (ECHCG). The description is as above. The note with it: 360 h, 15 DAA, visual score, read-out: Post-emergence herbicidal activity (percentage phytotoxicity) ECHCG; for pest or weed control at 125 g/ha: application rate 125 g/ha; for pest or weed control at 30 g/ha: application rate 30 g/ha; for pest or weed control at 250 g/ha: application rate 250 g/ha. As for the experimental part:
as §1, §2, §3, §4

These results are taken from patent US10375956B2, “Herbicidally active 2-(substituted-phenyl)-cyclopentane-1,3-dione compounds and derivatives thereof” (Syngenta Limited, priority 2013, dated 2019).

Each structure is given as a SMILES string.

Turning to `C#CCC1CC(=O)C(c2c(F)cc(-c3ccc(Cl)cc3)cc2OC)C1=O` (stereo not shown) [Compound A14], in the experiment on Eleusine indica (ELEIN) (15 DAA), the “percentage control of Eleusine indica” value was 20%. In addition, the pest or weed control at 125 g/ha is 90% in the experiment with Setaria faberi (SETFA); 30% in experiment [1]; 60% in experiment [2]; 100% in experiment [3]; 100% in experiment [4]; 100% in experiment [5].
As to `C#CCC1CC(=O)C(c2c(Cl)cc(-c3ccc(F)cc3F)cc2OC)C1=O` (stereo not shown) [Compound A12], the “percentage control of Eleusine indica” value in the experiment on Eleusine indica (ELEIN) (14 or 15 DAA) came out at 90%. Also, the pest or weed control at 30 g/ha in the experiment with Setaria faberi (SETFA) was 20%; in experiment [1], 70%; in experiment [2] it was 70%; in experiment [3], 70%; in experiment [4], 90%; in experiment [5] it was 70%. For the same molecule, the pest or weed control at 125 g/ha (in the experiment with Setaria faberi (SETFA); in experiment [1]; in experiment [2]; in experiment [3]; in experiment [4]; in experiment [5]) was 100% each time.
Regarding `C#CCC1CC(=O)C(c2c(C)cc(-c3ccc(Cl)cn3)cc2C)C1=O` (stereo not shown) [Compound A2], the “percentage control of (phytotoxicity on) Eleusine indica (ELEIN)” value in the experiment with Eleusine indica (ELEIN) is given as 85%. In addition, the pest or weed control at 30 g/ha (in the experiment with Setaria faberi (SETFA); in experiment [1]; in experiment [2]; in experiment [3]; in experiment [4]; in experiment [5]) was 100% in each case. The pest or weed control at 250 g/ha (in the experiment on Setaria faberi (SETFA); in experiment [1]; in experiment [2]; in experiment [3]; in experiment [4]; in experiment [5]) was 100% throughout.
For `C#CCC1CC(=O)C(c2c(Cl)cc(-c3ccc(F)cc3)cc2OC)C1=O` (stereo not shown) [Compound A7], the “percentage control of (phytotoxicity on) Eleusine indica (ELEIN)” value in the experiment with Eleusine indica (ELEIN) is reported as 91.7%. The pest or weed control at 30 g/ha in the experiment with Setaria faberi (SETFA) amounted to 90%; in experiment [1], 100%; in experiment [2], 100%; in experiment [3] it was 100%; in experiment [4] it was 100%; in experiment [5], 100%. For the same molecule, the pest or weed control at 250 g/ha (in the experiment with Setaria faberi (SETFA); in experiment [1]; in experiment [2]; in experiment [3]; in experiment [4]; in experiment [5]) was 100% each time.
